Measurements as given in US12485419B2, “Sorting biological and non-biological moieties using magnetic levitation” (The Board of Trustees of the Leland Stanford Junior …, priority 2015, dated 2025).

Key:
3T3 cells = test: Effects of Gd concentration and levitation on cell viability (live/dead assay of spheroids); format: cell-based; settings: 48 hours exposure to 0, 25, 50, 100 mM Gd^+; magnetic levitation (LEV) and hanging drop (HD); FIG. 30
Experimental: Referring now to FIG. 30, the effects of Gd concentration and levitation on cell viability are illustrated. 3T3 cells were exposed for 48 hours to different concentration of Gd^+ (0, 25, 50, 100 mM) during magnetic levitation (LEV) and hanging drop (HD). Spheroid viability was then assessed with live/dead assay (calcein/ethidium homodimer^−1). […] The white scale bar is 100 μm.

red blood cells = system: red blood cells
Experimental: The levitation of red blood cells (RBC) was as follows. Blood samples from healthy donors were received from Stanford University Blood Center. Whole blood was diluted at varying ratios in PBS containing 30 mM Gd^+. Concentrations were described in the results. Concentrations of 450 and 90 million cells/mL of blood were used to measure blood stabilization time. Varying concentrations of blood, ranging from 250 to 0.8 million cells/mL were used to correlate the width of the blood band and cell concentrations.
Referring now to FIGS. 7A-7D, the effect of drugs was monitored using the levitation device. […] FIG. 7D illustrates the actual images that were analyzed to produce the plots of FIGS. 7B and 7C. In FIG. 7D, a certain density beads was added each time for calibration experiments.
Images were taken over time in 60 minutes. […] FIG. 6B is then a graph showing the area analysis. Area of the blood were measured using an image) script developed in the lab. […] Looking at FIG. 6C, the levitation height is measured using same script. Height is directly correlated with density of cells.

| Structure (SMILES) | spheroid viability (calcein/ethidium homodimer live/dead assay) (3T3 cells) | levitation height of red blood cells (red blood cells; 75 mg/mL chloroquine spiked into red blood cells, with increasing time of exposure, FIG. 7A) | levitation height of blood sample in capillary channel (red blood cells; chloroquine at 7.5 mg/mL and 75 mg/mL, Sample-1, Sample-2, Sample-3, especially after the high dosage, FIG. 8) | density of blood (from levitation height) (red blood cells; i-LEV, higher drug concentration, within 50 minutes, FIG. 6C) |
| --- | --- | --- | --- | --- |
| O=C([O-])CN1CCN(CC(=O)[O-])CCN([C@H](CO)[C@H](O)CO)CCN(CC(=O)[O-])CC1.[Gd+3] [Gd^+] | majority of the cells in the aggregates are alive | – | – | – |
| CCN(CC)CCCC(C)Nc1ccnc2cc(Cl)ccc12 (stereo not shown) [chloroquine] | – | decreases | levels out at a very low height | higher density |
